According to PMC2228077, “The bioavailability of oral GI147211 (GG211), a new topoisomerase I inhibitor” (British Journal of Cancer, 1997):
Structures can show the parent of a compound that is named as a salt. Where two headings read alike, the source gives them in different places.

Tests used:
[1] = system: xenografts of human cancers, including HT-29 and SW-48 colon, PC-3 prostate, MX-1 breast, H460 lung, SKOV3 ovarian and KB epidermoid carcinomas; set-up: method as in Emerson et al, 1993, 1995; details: ref Emerson et al, 1993, 1995; cited from earlier work
[2] = Toxicity assessment (CTC criteria) in patients, oral day 1 + i.v. days 2-5 every 3 weeks; assay type: in vivo, human; details: for Abdominal discomfort, drug-related toxicity per course / Diarrhoea, drug-related toxicity per course / Nausea, drug-related toxicity per course / Stomatitis, drug-related toxicity per course: CTC grade 1; for Abdominal discomfort, drug-related toxicity per course / Diarrhoea, drug-related toxicity per course / Nausea, drug-related toxicity per course / Stomatitis, drug-related toxicity per course / Fatigue, drug-related toxicity per course / Vomiting, drug-related toxicity per course: Table 2
From the text: British Journal of Cancer (1997) 76(7), 946-951 ? 1997 Cancer Research Campaign The bloavailability of oral Gil 47211 (GG21 1), a new topoisomerase I inhibitor CJH Gerrits', JHM Schellens', GJ Creemers', P Wissel2, ASTh Planting', JF Pritchard2, S DePee2, M de Boer-Dennert', M Harteveld' and J Verweij' 'Department of Medical Oncology, Rotterdam Cancer Institute (Daniel den Hoed Kliniek) and University Hospital, The Netherlands; 2Glaxo Wellcome, Department of Pharmacokinetics, NC, USA Summary Topoisomerase I inhibitors are new compounds of interest for cancer chemotherapy. We performed a study with Gl147211, a new semisynthetic camptothecin analogue, to determine the absolute bioavailability of the drug given orally. […] Gi147211 was given orally on day 1 and as a 30-min infusion daily on days 2-5. The treatment course was repeated every 3 weeks. In subsequent patient cohorts, the dose of the oral formulation was escalated from 1.5 mg m-2 to 6.0 mg m-2; the dose for i.v. administration was fixed at 1.2 mg m-2. Plasma pharmacokinetics was performed on day 1 and 2 of the first course and on day 1 of the second course using a validated high-performance liquid chromatographic assay. […] Keywords: G1147211 (GG211); bioavailability; topoisomerase I inhibitor; phase I study G1147211 [7-(methylpiperazinomethylene)-10,11-ethylenedioxy- 20(S)-camptothecin dihydrochloride] is a water-soluble semisyn- thetic analogue of camptothecin (CPT). […] Its further development was stopped because of unpredictable and severe myelosuppression, gastro- intestinal toxicity and haemorrhagic cystitis (Gottlieb et al, 1970; Creaven et al, 1972; Muggia et al, 1972). Interest in CPT was renewed in the 1980s, because topoiso- merase I was identified as the single cellular target of CPT (Hsiang et al, 1988 1989), and an overexpression of topoisomerase I was found in various tumour cell lines but not in normal tissues (Giovanella et al, 1989; Hirabayashi et al, 1992). Topoisomerase I is a nuclear enzyme that resolves topological problems of the torsionally strained (supercoiled) DNA by forming a covalent adduct between topoisomerase I and the DNA, termed the cleav- able complex. This catalytic intermediate creates single-strand DNA breaks, allowing the DNA molecule to rotate around the intact DNA strand at the cleavage site, leading to a relaxation of Received 29 November 1996 Revised 27 March 1997 Accepted 1 April 1997 Correspondence to: CJH Gerrits, Department of Medical Oncology, Rotterdam Cancer Institute, (Daniel den Hoed Kliniek) and University Hospital, Groene Hilledijk 301, 3075 EA Rotterdam, The Netherlands the DNA molecule, and in this way replication, transcription and other DNA functions can proceed. These enzyme-bridged breaks are then resealed by topoisomerase I (Champoux, 1976; Muller, 1985; Muller et al, 1985; Camilloni et al, 1989). […] It has been documented that camptothecin (CPT) interferes with the breakage-reunion process of topoiso- merase I by stabilizing the enzyme-DNA cleavable complexes (Liu et al, 1989).

[3] = mouse, in vivo; cited from earlier work
[4] = intravenous route; cited from earlier work
[5] = dog, in vivo; cited from earlier work
solid tumour = test: Tumour response (WHO criteria) in patients; assay type: in vivo, human; details: 17 evaluable patients
From the text: British Journal of Cancer (1997) 76(7), 946-951 ? 1997 Cancer Research Campaign The bloavailability of oral Gil 47211 (GG21 1), a new topoisomerase I inhibitor CJH Gerrits', JHM Schellens', GJ Creemers', P Wissel2, ASTh Planting', JF Pritchard2, S DePee2, M de Boer-Dennert', M Harteveld' and J Verweij' 'Department of Medical Oncology, Rotterdam Cancer Institute (Daniel den Hoed Kliniek) and University Hospital, The Netherlands; 2Glaxo Wellcome, Department of Pharmacokinetics, NC, USA Summary Topoisomerase I inhibitors are new compounds of interest for cancer chemotherapy. We performed a study with Gl147211, a new semisynthetic camptothecin analogue, to determine the absolute bioavailability of the drug given orally. […] Gi147211 was given orally on day 1 and as a 30-min infusion daily on days 2-5. The treatment course was repeated every 3 weeks. In subsequent patient cohorts, the dose of the oral formulation was escalated from 1.5 mg m-2 to 6.0 mg m-2; the dose for i.v. administration was fixed at 1.2 mg m-2. Plasma pharmacokinetics was performed on day 1 and 2 of the first course and on day 1 of the second course using a validated high-performance liquid chromatographic assay. […]

[6] = oral 6.0 mg m-2 level, discussion

CC[C@@]1(O)C(=O)OCc2c1cc1n(c2=O)Cc2c-1nc1cc3c(cc1c2CN1CCN(C)CC1)OCCO3 [GI147211, 7-(methylpiperazinomethylene)-10,11-ethylenedioxy-20(S)-camptothecin dihydrochloride]
activity against xenografts of human cancers [1]: significant cytotoxicity | ANC nadir ([2]; 6.0 mg m-2 level, the one case with CTC grade IV): 9e+07 L⁻¹ | courses in which erythrocyte transfusions were given ([2]; CTC grade I-II anaemia occurred regularly): 24 out of 47 | platelet count, range ([2]; CTC grade III-IV thrombocytopenia): 4-40 x 109 l-1 | courses with fatigue CTC grade II ([2]; Table 2 footnote c): Four | Abdominal discomfort, drug-related toxicity per course ([2]; Total, n = 47 courses): 6 courses | Diarrhoea, drug-related toxicity per course ([2]; Total, n = 47 courses): 1 courses | Nausea, drug-related toxicity per course ([2]; Total, n = 47 courses): 24 courses | Stomatitis, drug-related toxicity per course ([2]; Total, n = 47 courses): 2 courses | Fatigue, drug-related toxicity per course ([2]; Total, n = 47 courses): 16 courses | myelotoxicity ([2]; first two dose levels (1.5 and 3.0 mg m-2 oral)): not observed | duration of severe granulocytopenia, range ([2]; human, in vivo): 7 to 19 days | duration of severe thrombocytopenia, range ([2]; human, in vivo): 3 to 16 days | median duration of severe granulocytopenia (first occurrence to recovery to CTC grade II) ([2]; human, in vivo): 7 days | median duration of severe thrombocytopenia (first occurrence to recovery to CTC grade II) ([2]; human, in vivo): 8 days | nausea and vomiting after oral administration compared with intravenous dosing ([2]; human, in vivo): not different | neutropenic sepsis (main serious adverse event) ([2]; human, in vivo): one | patients complaining of mild fatigue ([2]; human, in vivo): 34% | patients with treatment delay because of slow recovery of mild leucopenia ([2]; human, in vivo): six | renal and liver toxicity ([2]; human, in vivo): not reported | diarrhoea after a single oral administration ([2]; human, in vivo, po): did not result in diar- rhoea | tolerability of oral administration ([2]; human, in vivo, po): well tolerated | courses with mild leucopenia CTC grade I-II ([2]; of 47 courses): 17 courses | mild leucopenia CTC grade I-II, share of courses ([2]; of 47 courses): 36.2% | nausea CTC grade I, share of courses ([2]; of 47 courses): 51.6% | vomiting CTC grade I, number of courses ([2]; of 47 courses): 9 courses | vomiting CTC grade I, share of courses ([2]; of 47 courses): 19.1% | reversible CTC grade I peripheral neuropathy ([2]; one patient): 2.1% | day of the platelet nadir [2, 6]: 8 days | day of the platelet nadir, range [2, 6]: 3 to 16 days | onset of neutropenia CTC grade III-IV ([2]; oral 6.0 mg m-2 day 1 + i.v. 1.2 mg m-2 days 2-5, discussion): 7 to 19 days | Abdominal discomfort, drug-related toxicity per course ([2]; oral dose level 1.5 mg m-2): 0 courses | Diarrhoea, drug-related toxicity per course ([2]; oral dose level 1.5 mg m-2): 0 courses | Nausea, drug-related toxicity per course ([2]; oral dose level 1.5 mg m-2): 4 courses | Stomatitis, drug-related toxicity per course ([2]; oral dose level 1.5 mg m-2): 0 courses | Fatigue, drug-related toxicity per course ([2]; oral dose level 1.5 mg m-2): 4 courses | Vomiting, drug-related toxicity per course ([2]; oral dose level 1.5 mg m-2): 2 courses | Abdominal discomfort, drug-related toxicity per course ([2]; oral dose level 3.0 mg m-2): 3 courses | Diarrhoea, drug-related toxicity per course ([2]; oral dose level 3.0 mg m-2): 0 courses | Nausea, drug-related toxicity per course ([2]; oral dose level 3.0 mg m-2): 4 courses | Stomatitis, drug-related toxicity per course ([2]; oral dose level 3.0 mg m-2): 1 courses | Fatigue, drug-related toxicity per course ([2]; oral dose level 3.0 mg m-2): 2 courses | Vomiting, drug-related toxicity per course ([2]; oral dose level 3.0 mg m-2): 2 courses | courses postponed for 1 week because of mild leucopenia with slow recovery ([2]; oral dose level 6.0 mg m-2): 10 out of 30 | courses with CTC grade III-IV granulocytopenia ([2]; oral dose level 6.0 mg m-2): 5 out of 30 | courses with CTC grade III-IV thrombocytopenia ([2]; oral dose level 6.0 mg m-2): 4 out of 30 | Abdominal discomfort, drug-related toxicity per course ([2]; oral dose level 6.0 mg m-2): 3 courses | Diarrhoea, drug-related toxicity per course ([2]; oral dose level 6.0 mg m-2): 1 courses | Nausea, drug-related toxicity per course ([2]; oral dose level 6.0 mg m-2): 16 courses | Stomatitis, drug-related toxicity per course ([2]; oral dose level 6.0 mg m-2): 1 courses | Fatigue, drug-related toxicity per course ([2]; oral dose level 6.0 mg m-2): 10 courses | Vomiting, drug-related toxicity per course ([2]; oral dose level 6.0 mg m-2): 7 courses | abdominal discomfort, mostly cramping, share of courses ([2]; six courses): 13% | nadir for neutropenia ([2]; summary): 8 days | nadir for thrombocytopenia ([2]; summary): 15 days | alopecia grade I, share of patients ([2]; three patients): 17% | median platelet count ([2]; three patients with CTC grade III-IV thrombocytopenia): 2.5e+10 L⁻¹ | mild headache, share of courses ([2]; two courses, not dose dependent): 4.2% | vomiting CTC grade II, share of cycles ([2]; two cycles): 4.2% | absolute bioavailability [3]: 2-5% | main toxicity in animal toxicology studies [4]: myelosuppression was the main toxicity and was dose limiting | absolute bioavailability [5]: 16% | best response to treatment (solid tumour): stable disease in seven patients
